Results published in article PMC6981637, “Tetrahydroquinoline-Isoxazole/Isoxazoline Hybrid Compounds as Potential Cholinesterases Inhibitors: Synthesis, Enzyme Inhibition Assays, and Molecular Modeling Studies” (International Journal of Molecular Sciences, 2019).
Values joined by “and” are separate entries in the source; they are usually repeats but may differ in a detail not shown here. Equal values may be shown once. Read-outs that look alike come from different tables or passages of the source.

Assays:
[1] = target: AChE (from Electrophorus electricus) (Electrophorus electricus, UniProt O42275)
Chain of AChE (from Electrophorus electricus) (O42275 24-633): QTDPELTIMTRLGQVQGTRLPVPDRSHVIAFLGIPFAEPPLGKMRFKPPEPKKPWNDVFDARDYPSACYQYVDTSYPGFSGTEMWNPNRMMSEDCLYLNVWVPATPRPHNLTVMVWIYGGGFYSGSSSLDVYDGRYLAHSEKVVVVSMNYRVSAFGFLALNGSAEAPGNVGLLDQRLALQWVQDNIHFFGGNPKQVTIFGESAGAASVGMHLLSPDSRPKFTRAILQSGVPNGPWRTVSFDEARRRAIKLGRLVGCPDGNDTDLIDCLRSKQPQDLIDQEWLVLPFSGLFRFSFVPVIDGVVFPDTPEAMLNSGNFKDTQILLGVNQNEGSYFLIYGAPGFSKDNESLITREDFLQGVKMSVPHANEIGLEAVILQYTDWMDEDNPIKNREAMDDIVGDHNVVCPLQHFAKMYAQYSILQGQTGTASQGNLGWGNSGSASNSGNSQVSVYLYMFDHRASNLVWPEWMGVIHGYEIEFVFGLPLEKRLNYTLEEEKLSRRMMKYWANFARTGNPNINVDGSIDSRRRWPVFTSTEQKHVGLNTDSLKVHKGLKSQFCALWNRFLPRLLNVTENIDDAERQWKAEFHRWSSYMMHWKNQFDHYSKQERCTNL

[2] = target: T1, BChE (from bovine serum) (Bos taurus, UniProt P32749); experiment: BChE inhibitory activity (Ellman method); format: biochemical; conditions: for IC50: average from three independent experiments ± SEM; for selectivity against BChE: conclusions
T1 construct: purchased Sigma-Aldrich
T1 sequence (P32749 29-602): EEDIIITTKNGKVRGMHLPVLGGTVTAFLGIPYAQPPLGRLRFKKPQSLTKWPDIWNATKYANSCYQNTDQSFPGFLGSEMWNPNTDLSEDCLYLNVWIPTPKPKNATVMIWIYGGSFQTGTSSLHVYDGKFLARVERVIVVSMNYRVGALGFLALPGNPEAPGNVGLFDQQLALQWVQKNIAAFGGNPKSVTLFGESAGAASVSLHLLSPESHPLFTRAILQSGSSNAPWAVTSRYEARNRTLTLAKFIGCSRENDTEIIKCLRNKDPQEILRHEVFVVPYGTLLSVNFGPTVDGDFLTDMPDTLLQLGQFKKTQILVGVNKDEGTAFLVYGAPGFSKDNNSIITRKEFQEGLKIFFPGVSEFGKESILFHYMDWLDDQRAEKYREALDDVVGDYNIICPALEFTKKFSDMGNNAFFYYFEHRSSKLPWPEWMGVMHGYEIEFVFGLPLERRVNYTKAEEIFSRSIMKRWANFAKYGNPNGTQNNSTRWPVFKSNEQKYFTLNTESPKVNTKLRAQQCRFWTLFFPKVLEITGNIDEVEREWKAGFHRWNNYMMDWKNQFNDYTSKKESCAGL

[3] = Table 1, THQ–isoxazoline hybrids 5, read-out: IC50 BChE
[4] = Table 2, THQ–isoxazole hybrids 6, read-out: BChE (IC50)

`Cc1ccc2c(c1)C(N1CCCC1=O)CCN2CC1CC(c2ccccc2)=NO1` (stereo not drawn) [5e, 5-[(6-methyl-4-(2′-oxopyrrolidin-1′-yl)-3,4-dihydroquinolin-1(2H)-yl)-methyl]-3-phenyl-4,5-dihydroisoxazole] gave an SI [1] of 0.17, an IC50 ([1]; read-out: IC50 AChE) of 189.1 ± 0.01 µM and an IC50 [2, 3] of 31.4 ± 0.01 µM.
For `COc1ccc(C2=NOC(CN3CCC(N4CCCC4=O)c4cc(Cl)ccc43)C2)cc1` (stereo not drawn) [5n, 5-[(6-chloro-4-(2′-oxopyrrolidin-1′-yl)-3,4-dihydroquinolin-1(2H)-yl)-methyl]-3-(4-methoxyphenyl)-4,5-dihydroisoxazole], the SI [1] was 5.19, the “selectivity for inhibiting AChE” value [1] was “significant selectivity” and the IC50 [2, 3] was 22 ± 0.02 µM.
With `O=C1CCCN1C1CCN(Cc2cc(-c3ccccc3)no2)c2ccccc21` (stereo not drawn) [6a, 3-phenyl-5-((4′-(2′’-oxopyrrolidin-1′’-yl)-3′,4′-dihydroquinolin-1′(2′H)-yl)methyl)isoxazole] the SI [1] was 0.04, the IC50 ([1]; read-out: AChE (IC50)) was 104.74 ± 0.01 µM and the IC50 [2, 4] was < 7.18 µM and 4.36 µM. The “selectivity against BChE” value [2] was “more selective”.
Compound `COc1ccc(-c2cc(CN3CCC(N4CCCC4=O)c4cc(Cl)cc(Cl)c43)on2)cc1OC` (stereo not drawn) [6o, 5-((6′,8′-dichloro-4′-(2′’-oxopyrrolidin-1′’-yl)-3′,4′-dihydroquinolin-1′(2′H)-yl)methyl)-3-(3,4-dimethoxyphenyl)isoxazole] has an SI [1] of 3.88, an IC50 ([1]; read-out: AChE (IC50)) of 80.89 ± 0.04 µM and an IC50 [2, 4] of 313.82 ± 0.01 µM.
Compound `COc1cc(Cl)c2c(c1)C(N1CCCC1=O)CCN2Cc1cc(-c2ccc(OC)c(OC)c2)no1` (stereo not drawn) [6j, 5-((8′-chloro-6′-methoxy-4′-(2′’-oxopyrrolidin-1′’-yl)-3′,4′-dihydroquinolin-1′(2′H)-yl)methyl)-3-(3,4-dimethoxyphenyl)isoxazole] has an SI [1] of 2.72, an IC50 ([1]; read-out: AChE (IC50)) of 54.69 ± 0.01 µM and an IC50 [2, 4] of 149 ± 0.02 µM.
Work on `COc1ccc(C2=NOC(CN3CCC(N4CCCC4=O)c4cc(C)ccc43)C2)cc1` (stereo not drawn) [5f, 3-(4-methoxyphenyl)-5-[(6-methyl-4-(2′-oxopyrrolidin-1′-yl)-3,4-dihydroquinolin-1(2H)-yl)-methyl]-4,5-dihydroisoxazole] yielded an SI [1] of 1.43, an IC50 ([1]; read-out: IC50 AChE) of 16.31 ± 0.01 µM and an IC50 [2, 3] of 23.36 ± 0.005 µM.
`COc1ccc(-c2cc(CN3CCC(N4CCCC4=O)c4cc(Cl)ccc43)on2)cc1OC` (stereo not drawn) [6n, 5-((6′-chloro-4′-(2′’-oxopyrrolidin-1′’-yl)-3′,4′-dihydroquinolin-1′(2′H)-yl)methyl)-3-(3,4-dimethoxyphenyl)isoxazole] was tested, and the SI [1] was 2.75, the IC50 ([1]; read-out: AChE (IC50)) was 8.98 ± 0.01 µM and the IC50 [2, 4] was 24.67 ± 0.01 µM.
`O=C1CCCN1C1CCN(Cc2cc(-c3ccccc3)no2)c2ccc(F)cc21` (stereo not drawn) [6u, 5-((6′-fluor-4′-(2′’-oxopyrrolidin-1′’-yl)-3′,4′-dihydroquinolin-1′(2′H)-yl)methyl)-3-phenylisoxazole] showed an SI [1] of 0.15, an IC50 ([1]; read-out: AChE (IC50)) of 116.63 ± 0.01 µM and an IC50 [2, 4] of 17.74 ± 0.01 µM. For the same compound, the “selectivity against BChE” value [2] was “more selective”.
Compound `COc1cc(-c2cc(CN3CCC(N4CCCC4=O)c4cc(C)ccc43)on2)cc(OC)c1OC` (stereo not drawn) [6g, 3-(3,4,5-trimethoxyphenyl)-5-((6′-methyl-4′-(2′’-oxopyrrolidin-1′’-yl)-3′,4′-dihydroquinolin-1′(2′H)-yl)methyl)isoxazole] has an SI [1] of 1.07, an IC50 ([1]; read-out: AChE (IC50)) of 72.94 ± 0.02 µM and an IC50 [2, 4] of 78.16 ± 0.01 µM.
With `COc1ccc(-c2cc(CN3CCC(N4CCCC4=O)c4cc(Br)ccc43)on2)cc1` (stereo not drawn) [6z, 3-(4-methoxyphenyl)-5-((6′-bromo-4′-(2′’-oxopyrrolidin-1′’-yl)-3′,4′-dihydroquinolin-1′(2′H)-yl)methyl)isoxazole] the SI [1] was 0.48, the IC50 ([1]; read-out: AChE (IC50)) was 12.19 ± 0.005 µM and the IC50 [2, 4] was < 7.18 µM and 5.81 µM.
In the case of `COc1ccc2c(c1)C(N1CCCC1=O)CCN2Cc1cc(-c2cc(OC)c(OC)c(OC)c2)no1` (stereo not drawn) [6k, 3-(3,4,5-trimethoxyphenyl)-5-((6′-methoxy-4′-(2′’-oxopyrrolidin-1′’-yl)-3′,4′-dihydroquinolin-1′(2′H)-yl)methyl)isoxazole], the SI [1] is reported as 3.63, the IC50 ([1]; read-out: AChE (IC50)) is reported as 20.19 ± 0.02 µM and the IC50 [2, 4] is reported as 73.26 ± 0.01 µM.
`COc1ccc(-c2cc(CN3CCC(N4CCCC4=O)c4cc(F)ccc43)on2)cc1OC` (stereo not drawn) [6w, 5-((6′-fluoro-4′-(2′’-oxopyrrolidin-1′’-yl)-3′,4′-dihydroquinolin-1′(2′H)-yl)methyl)-3-(3,4-dimethoxyphenyl)isoxazole] gave an SI [1] of 2.79, an IC50 ([1]; read-out: AChE (IC50)) of 16.83 ± 0.002 µM and an IC50 [2, 4] of 46.92 ± 0.01 µM.
Compound `COc1ccc(C2=NOC(CN3CCC(N4CCCC4=O)c4cc(C)ccc43)C2)cc1OC` (stereo not drawn) [5g, 3-(3,4-dimethoxyphenyl)-5-[(6-methyl-4-(2′-oxopyrrolidin-1′-yl)-3,4-dihydroquinolin-1(2H)-yl)-methyl]-4,5-dihydroisoxazole] has an SI [1] of 0.32, an IC50 ([1]; read-out: IC50 AChE) of 99.71 ± 0.01 µM and an IC50 [2, 3] of 31.49 ± 0.005 µM.
`COc1ccc(-c2cc(CN3CCC(N4CCCC4=O)c4cc(C)cc(Cl)c43)on2)cc1OC` (stereo not drawn) [6f, 5-((8′-chloro-6′-methyl-4′-(2′’-oxopyrrolidin-1′’-yl)-3′,4′-dihydroquinolin-1′(2′H)-yl)methyl)-3-(3,4-dimethoxyphenyl)isoxazole] showed an SI [1] of 6.76, an IC50 ([1]; read-out: AChE (IC50)) of 54.71 ± 0.02 µM and an IC50 [2, 4] of 370.12 ± 0.03 µM.
`COc1ccc(-c2cc(CN3CCC(N4CCCC4=O)c4ccccc43)on2)cc1` (stereo not drawn) [6b, 3-(4-methoxyphenyl)-5-((4′-(2′’-oxopyrrolidin-1′’-yl)-3′,4′-dihydroquinolin-1′(2′H)-yl)methyl)isoxazole] was tested, and the SI [1] was 0.64, the IC50 ([1]; read-out: AChE (IC50)) was 42.44 ± 0.01 µM and the IC50 [2, 4] was 27.25 ± 0.003 µM.
With `O=C1CCCN1C1CCN(Cc2cc(-c3ccccc3)no2)c2ccc(Cl)cc21` (stereo not drawn) [6l, 5-((6′-chloro-4′-(2′’-oxopyrrolidin-1′’-yl)-3′,4′-dihydroquinolin-1′(2′H)-yl)methyl)-3-phenylisoxazole] the SI [1] was 0.15, the IC50 ([1]; read-out: AChE (IC50)) was 92.01 ± 0.05 µM and the IC50 [2, 4] was 14.11 ± 0.02 µM. For the same compound, the “selectivity against BChE” value [2] was “more selective”.
